Experimental data taken from patent US20140228372A1 (priority 2011, published 2014).

melting point: 249 to 251 °C
SMILES: Cc1cc(C(F)(F)F)nn1CC(=O)N1CCC(c2csc(NC(=O)Cc3c(F)cccc3Cl)n2)CC1 [I.as.001, 2-(2-chloro-6-fluoro-phenyl)-N-(4-{1-[2-(5-methyl-3-trifluoromethyl-pyrazol-1-yl)-acetyl]-piperidin-4-yl}-thiazol-2-yl)-acetamide]
